# Measurements from PubChem BioAssay AID1259407 (Chemical Carcinogenesis Research Information System (CCRIS), 2018).
# Activity calls are given as the source filed them. The rule behind the calls is not given here.
# Tested on: CCRIS mutagenicity, Ames/micronucleus/aberration tests
# Assay: CCRIS mutagenicity studies
# [1] = Test System: AMES SALMONELLA TYPHIMURIUM, Strain/Indicator: TA98, Metabolic Activation: NONE, Method: STANDARD PLATE
# [2] = Test System: AMES SALMONELLA TYPHIMURIUM, Strain/Indicator: TA98, Metabolic Activation: RAT, LIVER, S-9, AROCLOR 1254, Method: STANDARD PLATE
# [3] = Test System: AMES SALMONELLA TYPHIMURIUM, Strain/Indicator: TA100, Metabolic Activation: NONE, Method: STANDARD PLATE
# [4] = Test System: AMES SALMONELLA TYPHIMURIUM, Strain/Indicator: TA100, Metabolic Activation: RAT, LIVER, S-9, AROCLOR 1254, Method: STANDARD PLATE
# [5] = Test System: AMES SALMONELLA TYPHIMURIUM, Strain/Indicator: TA98, Metabolic Activation: NONE, Method: PREINCUBATION
# [6] = Test System: AMES SALMONELLA TYPHIMURIUM, Strain/Indicator: TA100, Metabolic Activation: NONE, Method: PREINCUBATION
compound,measurement,setting,value
O=[N+]([O-])c1cc2c([nH]c3ccccc32)c([N+](=O)[O-])c1O,mutagenic call,"Test System: AMES SALMONELLA TYPHIMURIUM, Strain/Indicator: TA98(NR), Metabolic Activation: NONE, Method: STANDARD PLATE",active; positive
same,mutagenic call,"Test System: AMES SALMONELLA TYPHIMURIUM, Strain/Indicator: TA98(NR), Metabolic Activation: RAT, LIVER, S-9, AROCLOR 1254, Method: STANDARD PLATE",active; positive
same,mutagenic call,[1],active; positive
same,mutagenic call,[2],active; positive
O=C(O)/C=C\Cl,mutagenic call,"Test System: AMES SALMONELLA TYPHIMURIUM, Strain/Indicator: TA97, Metabolic Activation: RAT, LIVER, S-9, PCB, Method: STANDARD PLATE",active; positive
same,mutagenic call,"Test System: AMES SALMONELLA TYPHIMURIUM, Strain/Indicator: TA102, Metabolic Activation: RAT, LIVER, S-9, PCB, Method: STANDARD PLATE",active; positive
COc1c(O)c(OC)c(Cl)c(Cl)c1Cl,mutagenic call,"Test System: CHINESE HAMSTER V-79, Strain/Indicator: V-79/6-THIOGUANINE, Metabolic Activation: NONE, Method: STANDARD PLATE",inactive; negative
CCCCCCCCCCOC[N+](C)(C)Cc1ccccc1,mutagenic call,"Test System: BACILLUS SUBTILIS, Strain/Indicator: H17/REC, Metabolic Activation: NONE, Method: STANDARD PLATE",inactive; negative
same,mutagenic call,"Test System: BACILLUS SUBTILIS, Strain/Indicator: M45, Metabolic Activation: NONE, Method: STANDARD PLATE",inactive; negative
Cn1c([N+](=O)[O-])cnc1C(O)c1cc(C(C)(C)C)cc(C(C)(C)C)c1O (configuration not stated),mutagenic call,[1],inactive; negative
same,mutagenic call,[2],inactive; negative
same,mutagenic call,[3],inactive; negative
same,mutagenic call,[4],inactive; negative
same,mutagenic call,"Test System: AMES SALMONELLA TYPHIMURIUM, Strain/Indicator: TA1535, Metabolic Activation: NONE, Method: STANDARD PLATE",inactive; negative
same,mutagenic call,"Test System: AMES SALMONELLA TYPHIMURIUM, Strain/Indicator: TA1535, Metabolic Activation: RAT, LIVER, S-9, AROCLOR 1254, Method: STANDARD PLATE",inactive; negative
same,mutagenic call,"Test System: AMES SALMONELLA TYPHIMURIUM, Strain/Indicator: TA1537, Metabolic Activation: NONE, Method: STANDARD PLATE",inactive; negative
same,mutagenic call,"Test System: AMES SALMONELLA TYPHIMURIUM, Strain/Indicator: TA1537, Metabolic Activation: RAT, LIVER, S-9, AROCLOR 1254, Method: STANDARD PLATE",inactive; negative
same,mutagenic call,"Test System: AMES SALMONELLA TYPHIMURIUM, Strain/Indicator: TA1538, Metabolic Activation: NONE, Method: STANDARD PLATE",inactive; negative
same,mutagenic call,"Test System: AMES SALMONELLA TYPHIMURIUM, Strain/Indicator: TA1538, Metabolic Activation: RAT, LIVER, S-9, AROCLOR 1254, Method: STANDARD PLATE",inactive; negative
O=C1CCc2c1cc(C(F)(F)F)c1c2ccc2ccccc21,mutagenic call,"Test System: AMES SALMONELLA TYPHIMURIUM, Strain/Indicator: TA100, Metabolic Activation: RAT, LIVER, S-9, AROCLOR 1254",active; positive
O=C(O)/C=C/c1ccc([N+](=O)[O-])o1,mutagenic call,[5],active; positive
Cc1ccc(C)c(C)c1,mutagenic call,"Test System: AMES SALMONELLA TYPHIMURIUM, Strain/Indicator: TA97A, Metabolic Activation: NONE, Method: STANDARD PLATE",inactive; negative
same,mutagenic call,"Test System: AMES SALMONELLA TYPHIMURIUM, Strain/Indicator: TA97A, Metabolic Activation: RAT, LIVER, S-9, AROCLOR 1254, Method: STANDARD PLATE",inactive; negative
same,mutagenic call,[1],inactive; negative
same,mutagenic call,[2],inactive; negative
same,mutagenic call,[3],inactive; negative
same,mutagenic call,[4],inactive; negative
same,mutagenic call,"Test System: AMES SALMONELLA TYPHIMURIUM, Strain/Indicator: TA102, Metabolic Activation: NONE, Method: STANDARD PLATE",inactive; negative
same,mutagenic call,"Test System: AMES SALMONELLA TYPHIMURIUM, Strain/Indicator: TA102, Metabolic Activation: RAT, LIVER, S-9, AROCLOR 1254, Method: STANDARD PLATE",inactive; negative
C=CC(=C)C,mutagenic call,"End Point: IN VIVO CHROMOSOMAL ABERRATIONS, Test System: BONE MARROW CELLS, Species: MOUSE, Strain/Sex: B6C3F1/MALE, Route: INHALATION",inactive; negative
same,mutagenic call,"End Point: IN VIVO MICRONUCLEUS, Test System: PERIPHERAL BLOOD LYMPHOCYTES, Species: MOUSE, Strain/Sex: B6C3F1/MALE, Route: INHALATION",active; positive
same,mutagenic call,"Test System: AMES SALMONELLA TYPHIMURIUM, Strain/Indicator: TA98, Metabolic Activation: HAMSTER, LIVER, S-9, AROCLOR 1254 (10%), Method: PREINCUBATION",inactive; negative
same,mutagenic call,[5],inactive; negative
same,mutagenic call,"Test System: AMES SALMONELLA TYPHIMURIUM, Strain/Indicator: TA98, Metabolic Activation: RAT, LIVER, S-9, AROCLOR 1254 (10%), Method: PREINCUBATION",inactive; negative
same,mutagenic call,"Test System: AMES SALMONELLA TYPHIMURIUM, Strain/Indicator: TA98, Metabolic Activation: S-9, Method: PREINCUBATION",inactive; negative
same,mutagenic call,"Test System: AMES SALMONELLA TYPHIMURIUM, Strain/Indicator: TA100, Metabolic Activation: HAMSTER, LIVER, S-9, AROCLOR 1254 (10%), Method: PREINCUBATION",inactive; negative
same,mutagenic call,[6],inactive; negative
same,mutagenic call,"Test System: AMES SALMONELLA TYPHIMURIUM, Strain/Indicator: TA100, Metabolic Activation: RAT, LIVER, S-9, AROCLOR 1254 (10%), Method: PREINCUBATION",inactive; negative
same,mutagenic call,"Test System: AMES SALMONELLA TYPHIMURIUM, Strain/Indicator: TA100, Metabolic Activation: S-9, Method: PREINCUBATION",inactive; negative
same,mutagenic call,"Test System: AMES SALMONELLA TYPHIMURIUM, Strain/Indicator: TA1535, Metabolic Activation: HAMSTER, LIVER, S-9, AROCLOR 1254 (10%), Method: PREINCUBATION",inactive; negative
same,mutagenic call,"Test System: AMES SALMONELLA TYPHIMURIUM, Strain/Indicator: TA1535, Metabolic Activation: NONE, Method: PREINCUBATION",inactive; negative
same,mutagenic call,"Test System: AMES SALMONELLA TYPHIMURIUM, Strain/Indicator: TA1535, Metabolic Activation: RAT, LIVER, S-9, AROCLOR 1254 (10%), Method: PREINCUBATION",inactive; negative
same,mutagenic call,"Test System: AMES SALMONELLA TYPHIMURIUM, Strain/Indicator: TA1535, Metabolic Activation: S-9, Method: PREINCUBATION",inactive; negative
same,mutagenic call,"Test System: AMES SALMONELLA TYPHIMURIUM, Strain/Indicator: TA1537, Metabolic Activation: HAMSTER, LIVER, S-9, AROCLOR 1254 (10%), Method: PREINCUBATION",inactive; negative
same,mutagenic call,"Test System: AMES SALMONELLA TYPHIMURIUM, Strain/Indicator: TA1537, Metabolic Activation: NONE, Method: PREINCUBATION",inactive; negative
same,mutagenic call,"Test System: AMES SALMONELLA TYPHIMURIUM, Strain/Indicator: TA1537, Metabolic Activation: RAT, LIVER, S-9, AROCLOR 1254 (10%), Method: PREINCUBATION",inactive; negative
same,mutagenic call,"Test System: E.COLI, Strain/Indicator: WP2UVRA/PKM101, Metabolic Activation: NONE, Method: PREINCUBATION",inactive; negative
same,mutagenic call,"Test System: E.COLI, Strain/Indicator: WP2UVRA/PKM101, Metabolic Activation: S-9, Method: PREINCUBATION",inactive; negative
O=C(CCCCl)N=c1sn(C(=O)CCCCl)c2ccc(Cl)cc12,mutagenic call,"Test System: AMES SALMONELLA TYPHIMURIUM, Strain/Indicator: TA100, Metabolic Activation: S-9, Method: STANDARD PLATE",active; positive
COc1cc(Cl)c(OC)cc1Cl,mutagenic call,"Test System: AMES SALMONELLA TYPHIMURIUM, Strain/Indicator: TA98, Metabolic Activation: HAMSTER, LIVER, S-9, AROCLOR 1254 (5 OR 10%), Method: PREINCUBATION",inactive; negative
same,mutagenic call,"Test System: AMES SALMONELLA TYPHIMURIUM, Strain/Indicator: TA98, Metabolic Activation: HAMSTER, LIVER, S-9, AROCLOR 1254 (30%), Method: PREINCUBATION",inactive; negative
same,mutagenic call,[5],inactive; negative
same,mutagenic call,"Test System: AMES SALMONELLA TYPHIMURIUM, Strain/Indicator: TA98, Metabolic Activation: RAT, LIVER, S-9, AROCLOR 1254 (30%), Method: PREINCUBATION",inactive; negative
same,mutagenic call,"Test System: AMES SALMONELLA TYPHIMURIUM, Strain/Indicator: TA100, Metabolic Activation: HAMSTER, LIVER, S-9, AROCLOR 1254 (5 OR 10%), Method: PREINCUBATION",inactive; negative
same,mutagenic call,"Test System: AMES SALMONELLA TYPHIMURIUM, Strain/Indicator: TA100, Metabolic Activation: HAMSTER, LIVER, S-9, AROCLOR 1254 (30%), Method: PREINCUBATION",active; positive
same,mutagenic call,[6],inactive; negative
same,mutagenic call,"Test System: AMES SALMONELLA TYPHIMURIUM, Strain/Indicator: TA100, Metabolic Activation: RAT, LIVER, S-9, AROCLOR 1254 (30%), Method: PREINCUBATION",inactive; negative
